# Test results reported in ChEMBL document CHEMBL1201862, “PubChem BioAssay data set” (2004).
#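 Values below derive from 48-hour exposures of cells grown in 96-well plates, with endpoints linearly interpolated between the two concentrations bracketing the appropriate inhibition level. At the GI50, growth is halved.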 Active and inactive are the calls of the source. Cut-off read from the data, not from the text of the source: active = GI50 up to about 1.1 µM and inactive = higher.
# Assays:
# Test in all cases: DTP human tumour cell line panel, 48 h
# KM12 = system: KM12
# MOLT-4 = system: MOLT-4
# SF-295 = system: SF-295
# TK-10 = system: TK-10
# UACC-257 = system: UACC-257
# MDA-MB-231 = system: MDA-MB-231
# BT-549 = system: BT-549
# OVCAR-3 = system: OVCAR-3
# NCI/ADR-RES = system: NCI/ADR-RES
# SK-MEL-5 = system: SK-MEL-5
# NCI-H522 = system: NCI-H522
# EKVX = system: EKVX
# NCI-H226 = system: NCI-H226
# Malme-3M = system: Malme-3M
# 786-0 = system: 786-0
# HL-60 = system: HL-60
# SN12C = system: SN12C
# DU-145 = system: DU-145
# HOP-92 = system: HOP-92
Compound,GI50 (KM12),GI50 (MOLT-4),GI50 (SF-295),GI50 (TK-10),GI50 (UACC-257),GI50 (MDA-MB-231),GI50 (BT-549),GI50 (OVCAR-3),GI50 (NCI/ADR-RES),GI50 (SK-MEL-5),GI50 (NCI-H522),GI50 (EKVX),GI50 (NCI-H226),GI50 (Malme-3M),GI50 (786-0),GI50 (HL-60),GI50 (SN12C),GI50 (DU-145),GI50 (HOP-92)
c1cc(C2N3CCCN2CC3)ccn1 (stereo not given),> 100 µM (inactive),36.1 µM (inactive),> 100 µM (inactive),> 100 µM (inactive),> 100 µM (inactive),> 100 µM (inactive),> 100 µM (inactive),29.4 µM (inactive),61 µM (inactive),48.2 µM (inactive),4.85 µM (inactive),> 100 µM (inactive),> 100 µM (inactive),21.9 µM (inactive),56.2 µM (inactive),40.2 µM (inactive),79.8 µM (inactive),> 100 µM (inactive),
O=C(O)CCCc1ccc2ccccc2c1,> 100 µM (inactive),> 100 µM (inactive),> 100 µM (inactive),> 100 µM (inactive),> 100 µM (inactive),> 100 µM (inactive),> 100 µM (inactive),> 100 µM (inactive),> 100 µM (inactive),> 100 µM (inactive),> 100 µM (inactive),> 100 µM (inactive),,,> 100 µM (inactive),> 100 µM (inactive),> 100 µM (inactive),> 100 µM (inactive),> 100 µM (inactive)
COc1ccc2c(c1)OC1c3ccccc3OCC21 (stereo not given),28.4 µM (inactive),27.7 µM (inactive),> 100 µM (inactive),> 100 µM (inactive),> 100 µM (inactive),> 100 µM (inactive),59.7 µM (inactive),72.1 µM (inactive),60.3 µM (inactive),24.7 µM (inactive),,63.7 µM (inactive),47.1 µM (inactive),,> 100 µM (inactive),34.6 µM (inactive),> 100 µM (inactive),> 100 µM (inactive),61.8 µM (inactive)
CN(C)CN1C(=O)S/C(=C2\C(=O)N(CN(C)C)c3ccccc32)C1=O,41.5 µM (inactive),< 0.01 µM (active),96.6 µM (inactive),46.3 µM (inactive),32.7 µM (inactive),66.2 µM (inactive),45.1 µM (inactive),50.2 µM (inactive),40.2 µM (inactive),38.6 µM (inactive),36.5 µM (inactive),43.3 µM (inactive),38.9 µM (inactive),,35.7 µM (inactive),18.2 µM (inactive),23.7 µM (inactive),32.1 µM (inactive),> 100 µM (inactive)
Cc1sc(Nc2ccccc2[N+](=O)[O-])c(C#N)c1C,> 100 µM (inactive),> 100 µM (inactive),26.2 µM (inactive),,> 100 µM (inactive),19.6 µM (inactive),19.5 µM (inactive),19.8 µM (inactive),16.8 µM (inactive),,2.7 µM (inactive),35.4 µM (inactive),39.7 µM (inactive),0.0556 µM (active),22.6 µM (inactive),,40.3 µM (inactive),65.2 µM (inactive),18.7 µM (inactive)
CCOC(=O)c1c(Sc2ccc([N+](=O)[O-])cc2[N+](=O)[O-])nc2c3ccccc3ccn12,> 100 µM (inactive),> 100 µM (inactive),28.7 µM (inactive),> 55.7 µM (inactive),> 100 µM (inactive),29.1 µM (inactive),> 75.2 µM (inactive),> 92.5 µM (inactive),> 71.9 µM (inactive),80.2 µM (inactive),41.7 µM (inactive),> 100 µM (inactive),83.6 µM (inactive),,5.6 µM (inactive),11.5 µM (inactive),99.1 µM (inactive),> 100 µM (inactive),13.9 µM (inactive)
O=C1OC(c2ccc(Cl)cc2)=N/C1=C\c1ccccc1,> 100 µM (inactive),,> 100 µM (inactive),> 100 µM (inactive),> 100 µM (inactive),> 100 µM (inactive),> 100 µM (inactive),42.3 µM (inactive),78 µM (inactive),> 100 µM (inactive),49.2 µM (inactive),> 100 µM (inactive),> 100 µM (inactive),,> 100 µM (inactive),62.7 µM (inactive),> 100 µM (inactive),> 100 µM (inactive),> 100 µM (inactive)
Cc1nc2cn3c(c2c(=O)[nH]1)CCCCC3,> 100 µM (inactive),> 100 µM (inactive),> 100 µM (inactive),> 100 µM (inactive),> 100 µM (inactive),28.2 µM (inactive),> 100 µM (inactive),,> 100 µM (inactive),> 100 µM (inactive),,> 100 µM (inactive),> 100 µM (inactive),,> 100 µM (inactive),> 100 µM (inactive),,> 100 µM (inactive),> 100 µM (inactive)
N#Cc1c(N)nc2c(c1-c1ccc(Br)cc1)CSc1ccccc1-2,56 µM (inactive),38.7 µM (inactive),,73.1 µM (inactive),13.9 µM (inactive),13.3 µM (inactive),> 100 µM (inactive),30.4 µM (inactive),22 µM (inactive),58.7 µM (inactive),,,16.1 µM (inactive),> 100 µM (inactive),27.1 µM (inactive),33.7 µM (inactive),30 µM (inactive),96.6 µM (inactive),9.02 µM (inactive)
O=C(O)Cc1cccc2c1OC(c1ccccc1)C(C(=O)c1ccccc1)C2=O (stereo not given),25.6 µM (inactive),43.1 µM (inactive),37.4 µM (inactive),26.5 µM (inactive),> 100 µM (inactive),32.7 µM (inactive),> 100 µM (inactive),> 100 µM (inactive),> 100 µM (inactive),> 100 µM (inactive),43.2 µM (inactive),36.2 µM (inactive),> 100 µM (inactive),63.4 µM (inactive),52.5 µM (inactive),26.5 µM (inactive),45.8 µM (inactive),69 µM (inactive),
CCN(CC)C(=S)Oc1cc2oc(=O)cc(C)c2cc1Cl,> 100 µM (inactive),> 100 µM (inactive),66.7 µM (inactive),> 100 µM (inactive),> 100 µM (inactive),> 100 µM (inactive),> 100 µM (inactive),> 100 µM (inactive),> 100 µM (inactive),> 100 µM (inactive),80.4 µM (inactive),> 100 µM (inactive),> 100 µM (inactive),,> 100 µM (inactive),> 100 µM (inactive),> 100 µM (inactive),> 100 µM (inactive),56 µM (inactive)
CC(C)=CCC/C(C)=C/CC/C(C)=C/CSc1ccccc1C(=O)O [SALIRASIB],17.6 µM (inactive),23.5 µM (inactive),18.7 µM (inactive),28.4 µM (inactive),34.8 µM (inactive),22.6 µM (inactive),16.7 µM (inactive),16.5 µM (inactive),22.5 µM (inactive),14.8 µM (inactive),,18.4 µM (inactive),23.5 µM (inactive),,18.2 µM (inactive),29.7 µM (inactive),23.3 µM (inactive),18.2 µM (inactive),25.9 µM (inactive)
